Laboratory results published in patent publication US20200131669A1, “CYCLIC PEPTIDE COMPOUND HAVING HIGH MEMBRANE PERMEABILITY, AND LIBRARY CONTAINING SAME” (Chugai Seiyaku Kabushiki Kaisha, priority 2017, published 2020).
Starred links: 1 amine or outer side, 2 acyl side, 3 side chain; linkers in the order of their positions; H or OH if unused. Positions of bridges follow the written chain, without caps; N, C: chain ends. Non-standard residues stand in square brackets, D forms with d. Residues, ends and D or L forms follow the SMILES beside them. *: point of attachment. Phe(4-CF3) = N[C@@H](Cc1ccc(C(F)(F)F)cc1)C(=O)O; Tyr(3-F) = N[C@@H](Cc1ccc(O)c(F)c1)C(=O)O; NMeF = CN[C@@H](Cc1ccccc1)C(=O)O; NMeGABA = CN(CCCC(=O)[*:2])[*:1]; NMeI = CC[C@H](C)[C@H](NC)C(=O)O; NMeL = CN[C@@H](CC(C)C)C(=O)O; NMeV = CN[C@H](C(=O)O)C(C)C; NMeA = CN[C@@H](C)C(=O)O; Piperidide = C1CCN(*)CC1; dNMeA = CN[C@H](C)C(=O)O; Sar = CNCC(=O)O; tBu = CC(C)(C)*

Experiment: Caco-2 membrane permeability, improved method as used in the following Examples (96-well, 20 to 24 h preincubation)
Format: in vitro ADME
Conditions: Caco-2, Caco-2 (cm/sec); for Papp A→B at 180 min: human
Summary of the method: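 Caco-2 monolayers were grown three weeks and preincubated 20–24 h at 37 °C with compound in DMEM+FaSSIF (1% DMSO) apically. The assay then used compound in FaSSIF/HBSS (1% DMSO, pH 6.0) apically and HBSS with 4% BSA (pH 7.4) basally. Basal samples were taken at 180 min for LC/MS, and Papp (cm/sec) was calculated.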

CC[C@H](C)[C@@H]1NC(=O)[C@H](CC(C)C)N(C)C(=O)[C@@H](C)NC(=O)C[C@@H](C(=O)N2CCCCC2)NC(=O)[C@H](C(C)C)N(C)C(=O)[C@H](Cc2ccccc2)N(C)C(=O)[C@H](COC(C)(C)C)NC(=O)[C@H](CC(C)C)N(C)C(=O)CN(C)C(=O)[C@H](Cc2ccc(O)cc2)NC(=O)[C@H](C)N(C)C1=O [pd117] ([dA][NMeL]I[NMeA]Y[Sar][NMeL]S(tBu)[NMeF][NMeV]D-Piperidide; lactam N-11)
Papp A→B at 180 min: 0.56 ×10⁻⁶ cm/s

CC(C)C[C@H]1NC(=O)C[C@@H](C(=O)N2CCCCC2)NC(=O)[C@H](C)N(C)C(=O)[C@H](CC(C)C)N(C)C(=O)[C@H](COC(C)(C)C)NC(=O)[C@H](CC(C)C)N(C)C(=O)CN(C)C(=O)[C@H]([C@@H](C)O)NC(=O)[C@H](CC(C)C)N(C)C(=O)[C@H](Cc2ccc(O)c(F)c2)NC(=O)[C@H](Cc2ccccc2)N(C)C1=O [pd118] ([dL][NMeF][Tyr(3-F)][NMeL]T[Sar][NMeL]S(tBu)[NMeL][NMeA]D-Piperidide; lactam N-11)
Papp A→B at 180 min: 0.2 ×10⁻⁶ cm/s

CC[C@H](C)[C@@H]1NC(=O)[C@H](CC(C)C)N(C)C(=O)CCCN(C)C(=O)C[C@@H](C(=O)N2CCCCC2)NC(=O)[C@H](CC(C)C)N(C)C(=O)[C@H](C)N(C)C(=O)[C@H]([C@@H](C)O)NC(=O)[C@H](CC(C)C)N(C)C(=O)[C@H](Cc2ccc(O)c(F)c2)NC(=O)[C@H](CC(C)C)N(C)C(=O)[C@H](Cc2ccccc2)N(C)C1=O [pd119] ([NMeGABA][NMeL]I[NMeF][NMeL][Tyr(3-F)][NMeL]T[NMeA][NMeL]D-Piperidide; lactam N-11)
Papp A→B at 180 min: 0.16 ×10⁻⁶ cm/s

CC(C)C[C@@H]1NC(=O)[C@H](C)N(C)C(=O)C[C@@H](C(=O)N2CCCCC2)NC(=O)[C@H](CC(C)C)N(C)C(=O)CN(C)C(=O)[C@H](Cc2ccc(O)c(F)c2)NC(=O)[C@H](CC(C)C)N(C)C(=O)[C@H](C)N(C)C(=O)[C@H](C)NC(=O)[C@H](Cc2ccccc2)N(C)C(=O)[C@H](CC(C)C)N(C)C1=O [pd120] ([NMeA]L[NMeL][NMeF]A[NMeA][NMeL][Tyr(3-F)][Sar][NMeL]D-Piperidide; lactam N-11)
Papp A→B at 180 min: 0.23 ×10⁻⁶ cm/s

CC(C)C[C@H]1C(=O)N[C@@H](COC(C)(C)C)C(=O)N(C)[C@@H](Cc2ccccc2)C(=O)N(C)[C@@H](C(C)C)C(=O)N[C@H](C(=O)N2CCCCC2)CC(=O)N[C@H](C(C)C)C(=O)N(C)[C@@H](C)C(=O)N[C@@H](C(C)C)C(=O)N(C)[C@@H](CC(C)C)C(=O)N[C@@H](Cc2ccc(O)cc2)C(=O)N(C)CC(=O)N1C [pd121] ([dV][NMeA]V[NMeL]Y[Sar][NMeL]S(tBu)[NMeF][NMeV]D-Piperidide; lactam N-11)
Papp A→B at 180 min: 1 ×10⁻⁶ cm/s

CC(C)C[C@H]1C(=O)N[C@H](C(=O)N2CCCCC2)CC(=O)N(C)[C@@H](C)C(=O)N[C@@H](Cc2ccc(O)c(F)c2)C(=O)N(C)[C@@H](CC(C)C)C(=O)N(C)[C@@H](CC(C)C)C(=O)N[C@@H](C(C)C)C(=O)N(C)[C@@H](Cc2ccccc2)C(=O)N(C)[C@@H](CC(C)C)C(=O)N[C@@H]([C@@H](C)O)C(=O)N(C)CC(=O)N1C [pd122] ([NMeA][Tyr(3-F)][NMeL][NMeL]V[NMeF][NMeL]T[Sar][NMeL]D-Piperidide; lactam N-11)
Papp A→B at 180 min: 0.46 ×10⁻⁶ cm/s

CC[C@H](C)[C@@H]1NC(=O)[C@H](CC(C)C)N(C)C(=O)[C@@H](C)NC(=O)C[C@@H](C(=O)N2CCCCC2)NC(=O)[C@H](C)N(C)C(=O)[C@H](Cc2ccccc2)N(C)C(=O)[C@H](COC(C)(C)C)NC(=O)[C@H](CC(C)C)N(C)C(=O)CN(C)C(=O)[C@H](Cc2ccc(O)c(F)c2)NC(=O)[C@H](CC(C)C)N(C)C1=O [pd124] ([dA][NMeL]I[NMeL][Tyr(3-F)][Sar][NMeL]S(tBu)[NMeF][NMeA]D-Piperidide; lactam N-11)
Papp A→B at 180 min: 0.32 ×10⁻⁶ cm/s

CC[C@H](C)[C@@H]1NC(=O)[C@H](C(C)C)N(C)C(=O)CCCN(C)C(=O)C[C@@H](C(=O)N2CCCCC2)NC(=O)[C@H](CC(C)C)N(C)C(=O)[C@H](C)N(C)C(=O)[C@H](Cc2ccc(O)cc2)NC(=O)[C@H](CC(C)C)N(C)C(=O)[C@H](COC(C)(C)C)NC(=O)[C@H](Cc2ccccc2)N(C)C(=O)[C@H](CC(C)C)N(C)C1=O [pd125] ([NMeGABA][NMeV]I[NMeL][NMeF]S(tBu)[NMeL]Y[NMeA][NMeL]D-Piperidide; lactam N-11)
Papp A→B at 180 min: 0.45 ×10⁻⁶ cm/s

CC[C@H](C)[C@H]1C(=O)N[C@@H](Cc2ccc(O)cc2)C(=O)N(C)CC(=O)N(C)[C@@H](CC(C)C)C(=O)N[C@H](C(=O)N2CCCCC2)CC(=O)N(C)[C@@H](C)C(=O)N[C@@H](C(C)C)C(=O)N(C)[C@@H](CC(C)C)C(=O)N(C)[C@@H](CC(C)C)C(=O)N[C@@H](C)C(=O)N(C)[C@@H](Cc2ccccc2)C(=O)N1C [pd126] ([NMeA]V[NMeL][NMeL]A[NMeF][NMeI]Y[Sar][NMeL]D-Piperidide; lactam N-11)
Papp A→B at 180 min: 0.42 ×10⁻⁶ cm/s

CC(C)C[C@@H]1NC(=O)[C@H](Cc2ccccc2)N(C)C(=O)[C@@H](C(C)C)NC(=O)C[C@@H](C(=O)N2CCCCC2)NC(=O)[C@H](C)N(C)C(=O)[C@H](CC(C)C)N(C)C(=O)[C@H](COC(C)(C)C)NC(=O)[C@H](CC(C)C)N(C)C(=O)CN(C)C(=O)[C@H](Cc2ccc(O)cc2)NC(=O)[C@H](CC(C)C)N(C)C1=O [pd127] ([dV][NMeF]L[NMeL]Y[Sar][NMeL]S(tBu)[NMeL][NMeA]D-Piperidide; lactam N-11)
Papp A→B at 180 min: 0.13 ×10⁻⁶ cm/s

CC(C)C[C@@H]1NC(=O)[C@H](Cc2ccccc2)N(C)C(=O)[C@@H](C(C)C)NC(=O)C[C@@H](C(=O)N2CCCCC2)NC(=O)[C@H](CC(C)C)N(C)C(=O)[C@H](CC(C)C)N(C)C(=O)[C@H](Cc2ccc(O)c(F)c2)NC(=O)[C@H](CC(C)C)N(C)C(=O)CN(C)C(=O)[C@H]([C@@H](C)O)NC(=O)[C@H](CC(C)C)N(C)C1=O [pd128] ([dV][NMeF]L[NMeL]T[Sar][NMeL][Tyr(3-F)][NMeL][NMeL]D-Piperidide; lactam N-11)
Papp A→B at 180 min: 0.17 ×10⁻⁶ cm/s

CC[C@H](C)[C@@H]1NC(=O)[C@H](CC(C)C)N(C)C(=O)CCCN(C)C(=O)C[C@@H](C(=O)N2CCCCC2)NC(=O)[C@H](CC(C)C)N(C)C(=O)[C@H](C)N(C)C(=O)[C@H](Cc2ccc(O)cc2)NC(=O)[C@H](CC(C)C)N(C)C(=O)[C@H](COC(C)(C)C)NC(=O)[C@H](CC(C)C)N(C)C(=O)[C@H](Cc2ccccc2)N(C)C1=O [pd129] ([NMeGABA][NMeL]I[NMeF][NMeL]S(tBu)[NMeL]Y[NMeA][NMeL]D-Piperidide; lactam N-11)
Papp A→B at 180 min: 0.16 ×10⁻⁶ cm/s

CC(C)C[C@H]1C(=O)N[C@@H](COC(C)(C)C)C(=O)N(C)[C@@H](C(C)C)C(=O)N(C)[C@@H](C)C(=O)N[C@H](C(=O)N2CCCCC2)CC(=O)N[C@H](C)C(=O)N(C)[C@@H](Cc2ccccc2)C(=O)N[C@@H](Cc2ccc(C(F)(F)F)cc2)C(=O)N(C)[C@@H](CC(C)C)C(=O)N[C@@H]([C@@H](C)O)C(=O)N(C)CC(=O)N1C [pd130] ([dA][NMeF][Phe(4-CF3)][NMeL]T[Sar][NMeL]S(tBu)[NMeV][NMeA]D-Piperidide; lactam N-11)
Papp A→B: 1.1 ×10⁻⁶ cm/s

CC[C@H](C)[C@H]1C(=O)N[C@@H]([C@@H](C)O)C(=O)N(C)CC(=O)N(C)[C@@H](C)C(=O)N[C@H](C(=O)N2CCCCC2)CC(=O)N(C)[C@@H](C)C(=O)N[C@@H](Cc2ccc(C(F)(F)F)cc2)C(=O)N(C)[C@@H](CC(C)C)C(=O)N(C)[C@@H](Cc2ccccc2)C(=O)N[C@@H](C)C(=O)N(C)[C@@H](CC(C)C)C(=O)N1C [pd131] ([NMeA][Phe(4-CF3)][NMeL][NMeF]A[NMeL][NMeI]T[Sar][NMeA]D-Piperidide; lactam N-11)
Papp A→B: 1.1 ×10⁻⁶ cm/s

CC[C@H](C)[C@@H]1NC(=O)[C@H](C(C)C)N(C)C(=O)[C@H](C)N(C)C(=O)[C@H]([C@@H](C)O)NC(=O)[C@H](CC(C)C)N(C)C(=O)[C@H](Cc2ccc(C(F)(F)F)cc2)NC(=O)[C@H](CC(C)C)N(C)C(=O)[C@@H](C)N(C)C(=O)C[C@@H](C(=O)N2CCCCC2)NC(=O)[C@H](CC(C)C)NC(=O)[C@@H]2CCCN2C1=O [pd133] ([dNMeA][NMeL][Phe(4-CF3)][NMeL]T[NMeA][NMeV]IPLD-Piperidide; lactam N-11)
Papp A→B at 180 min: 2.3 ×10⁻⁶ cm/s

CC(C)C[C@H]1C(=O)N[C@@H](COC(C)(C)C)C(=O)N(C)[C@@H](Cc2ccccc2)C(=O)N(C)[C@@H](C)C(=O)N[C@H](C(=O)N2CCCCC2)CC(=O)N[C@H](C(C)C)C(=O)N(C)[C@@H](C(C)C)C(=O)N[C@@H](Cc2ccc(C(F)(F)F)cc2)C(=O)N(C)[C@@H](CC(C)C)C(=O)N[C@@H]([C@@H](C)O)C(=O)N(C)CC(=O)N1C [pd134] ([dV][NMeV][Phe(4-CF3)][NMeL]T[Sar][NMeL]S(tBu)[NMeF][NMeA]D-Piperidide; lactam N-11)
Papp A→B at 180 min: 2.6 ×10⁻⁶ cm/s

CC(C)C[C@H]1C(=O)N(C)[C@@H](C)C(=O)N(C)[C@@H](Cc2ccccc2)C(=O)N[C@@H]([C@@H](C)O)C(=O)N(C)[C@@H](CC(C)C)C(=O)N[C@@H](Cc2ccc(C(F)(F)F)cc2)C(=O)N2CCC[C@H]2C(=O)N[C@H](C(=O)N2CCCCC2)CC(=O)N1C [pd135] ([NMeL][NMeA][NMeF]T[NMeL][Phe(4-CF3)]PD-Piperidide; lactam N-8)
Papp A→B at 180 min: 1.3 ×10⁻⁶ cm/s

CC(C)C[C@H]1C(=O)N[C@@H]([C@@H](C)O)C(=O)N2CCC[C@H]2C(=O)N(C)[C@@H](C)C(=O)N[C@@H](Cc2ccc(C(F)(F)F)cc2)C(=O)N(C)[C@@H](CC(C)C)C(=O)N(C)[C@@H](CC(C)C)C(=O)N[C@H](C(=O)N2CCCCC2)CC(=O)N1C [pd136] ([NMeL]TP[NMeA][Phe(4-CF3)][NMeL][NMeL]D-Piperidide; lactam N-8)
Papp A→B at 180 min: 1.6 ×10⁻⁶ cm/s
